Where “and” joins values, the source holds several entries; their conditions need not be identical. Identical values can stand only once. Toxic doses and inconclusive results are not listed. The calls were made as follows: active = survival T/C of 150% or more; inactive = T/C below 125% in these data.
Test system: CD2F1 mice, L1210 leukemia ip, survival T/C
Assay: NCI In Vivo Anticancer Drug Screen. Data for tumor model L1210 Leukemia (intraperitoneal) in CD2F1 (CDF1) mice
Conditions: higher = longer survival
Procedure, shortened: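 Mice carrying a transplanted tumor received test compound or vehicle alone. The value is the measurement in the treated group divided by that in the vehicle-treated control group.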

[1] = endpoint: mean survival time, dose: 50.0 mg/kg/injection, schedule: Q01DX009 (ip), vehicle: saline with Tween-80
[2] = endpoint: mean survival time, dose: 100.0 mg/kg/injection, schedule: Q01DX009 (ip), vehicle: saline with Tween-80
[3] = endpoint: mean survival time, dose: 200.0 mg/kg/injection, schedule: Q01DX009 (ip), vehicle: saline with Tween-80
[4] = endpoint: mean survival time, dose: 100.0 mg/kg/injection, schedule: Q04DX003 (ip), vehicle: saline with Tween-80
[5] = endpoint: mean survival time, dose: 200.0 mg/kg/injection, schedule: Q04DX003 (ip), vehicle: saline with Tween-80
[6] = endpoint: mean survival time, dose: 400.0 mg/kg/injection, schedule: Q04DX003 (ip), vehicle: saline with Tween-80
[7] = endpoint: mean survival time, dose: 100.0 mg/kg/injection, schedule: Q01DX001 (ip), vehicle: saline
[8] = endpoint: mean survival time, dose: 200.0 mg/kg/injection, schedule: Q01DX001 (ip), vehicle: saline

Measured: T/C

CC(C)=CBr
inactive: endpoint: mean survival time, dose: 100.0 mg/kg/injection, schedule: Q04DX003 (ip), vehicle: acetone 103 % of control | endpoint: mean survival time, dose: 200.0 mg/kg/injection, schedule: Q04DX003 (ip), vehicle: acetone 94 % of control

NC(=O)c1c[n+](Cc2ccccc2)ccn1
inactive: endpoint: mean survival time, dose: 75.0 mg/kg/injection, schedule: Q01DX001 (ip), vehicle: saline 104 % of control

CN1CCSC1=S
inactive: endpoint: mean survival time, dose: 75.0 mg/kg/injection, schedule: Q01DX001 (ip), vehicle: other 92 % of control | endpoint: mean survival time, dose: 150.0 mg/kg/injection, schedule: Q01DX001 (ip), vehicle: other 96 % of control | endpoint: mean survival time, dose: 300.0 mg/kg/injection, schedule: Q01DX001 (ip), vehicle: other 104 % of control

CC1CC(C)CC(C)C(O)/C(C#N)=C/C=C/CC(C2CCCC2C(=O)O)OC(=O)CC(O)C(C)C1 (stereo not given)
inactive: endpoint: mean survival time, dose: 1.56 mg/kg/injection, schedule: Q01DX009 (ip), vehicle: Klucel (hydroxypropylcellulose) (HPC) 105 % of control | endpoint: mean survival time, dose: 3.13 mg/kg/injection, schedule: Q01DX009 (ip), vehicle: Klucel (hydroxypropylcellulose) (HPC) 109 % of control | endpoint: mean survival time, dose: 6.25 mg/kg/injection, schedule: Q01DX009 (ip), vehicle: Klucel (hydroxypropylcellulose) (HPC) 89 % of control and 96 % of control

COc1ccc(OCCOC(=O)Nc2cc(Cl)c(OC)cc2OC)cc1
inactive: endpoint: mean survival time, dose: 12.5 mg/kg/injection, schedule: Q01DX009 (ip), vehicle: saline with Tween-80 106 % of control | endpoint: mean survival time, dose: 25.0 mg/kg/injection, schedule: Q01DX009 (ip), vehicle: saline with Tween-80 103 % of control | [1] 106 % of control | [2] 92 % of control | [3] 92 % of control

CN(C)c1ccc(Cc2ccc(N(C)C)cc2)cc1
inactive: [4] 96 % of control | [5] 100 % of control | [6] 93 % of control

O=C(O)/C=C(/Br)C(=O)O
inactive: [7] 97 % of control | [8] 108 % of control

Cc1[nH]nc2c1CCCC2
inactive: endpoint: mean survival time, dose: 100.0 mg/kg/injection, schedule: Q01DX009 (ip), vehicle: other 101 % of control | endpoint: mean survival time, dose: 200.0 mg/kg/injection, schedule: Q01DX009 (ip), vehicle: other 97 % of control

CC1(C)N=C(N)N=C(N)N1c1cccc(CCC(=O)Nc2ccc(S(=O)(=O)F)cc2)c1
inactive: endpoint: mean survival time, dose: 50.0 mg/kg/injection, schedule: Q01DX009 (ip), vehicle: saline 100 % of control | endpoint: mean survival time, dose: 100.0 mg/kg/injection, schedule: Q01DX009 (ip), vehicle: saline 102 % of control | endpoint: mean survival time, dose: 200.0 mg/kg/injection, schedule: Q01DX009 (ip), vehicle: saline 105 % of control | endpoint: mean survival time, dose: 300.0 mg/kg/injection, schedule: Q01DX009 (ip), vehicle: saline 105 % of control | endpoint: mean survival time, dose: 400.0 mg/kg/injection, schedule: Q01DX009 (ip), vehicle: saline 108 % of control

CCCc1ccc(OC)cc1
inactive: [1] 103 % of control | [2] 97 % of control | [4] 98 % of control | [5] 94 % of control

Cc1cc(F)ccc1NC(=O)OC(C)C
inactive: [4] 101 % of control | [5] 92 % of control | [6] 104 % of control

CCN1/C(=C/C(C)=C/c2sc3ccc4ccccc4c3[n+]2CC)Sc2ccc3ccccc3c21
inactive: endpoint: mean survival time, dose: 0.02 mg/kg/injection, schedule: Q01DX009 (ip), vehicle: Klucel (hydroxypropylcellulose) (HPC) 101 % of control | endpoint: mean survival time, dose: 0.03 mg/kg/injection, schedule: Q01DX009 (ip), vehicle: Klucel (hydroxypropylcellulose) (HPC) 100 % of control | endpoint: mean survival time, dose: 0.05 mg/kg/injection, schedule: Q01DX009 (ip), vehicle: Klucel (hydroxypropylcellulose) (HPC) 113 % of control and 97 % of control | endpoint: mean survival time, dose: 0.1 mg/kg/injection, schedule: Q01DX009 (ip), vehicle: Klucel (hydroxypropylcellulose) (HPC) 100 % of control and 110 % of control | endpoint: mean survival time, dose: 0.2 mg/kg/injection, schedule: Q01DX009 (ip), vehicle: Klucel (hydroxypropylcellulose) (HPC) 103 % of control and 104 % of control | endpoint: mean survival time, dose: 0.4 mg/kg/injection, schedule: Q01DX009 (ip), vehicle: Klucel (hydroxypropylcellulose) (HPC) 105 % of control and 107 % of control | endpoint: mean survival time, dose: 0.8 mg/kg/injection, schedule: Q01DX009 (ip), vehicle: Klucel (hydroxypropylcellulose) (HPC) 119 % of control and 104 % of control

COC1/C=C/C=C(/C)Cc2cc(O)c(Cl)c(c2)N(C)C(=O)CC(OC(=O)C(C)C)C2(C)OC2C(C)C2CC1(O)NC(=O)O2 (stereo not given)
inactive: endpoint: mean survival time, dose: 0.12 mg/kg/injection, schedule: Q01DX009 (ip), vehicle: saline + alcohol 111 % of control | endpoint: mean survival time, dose: 0.5 mg/kg/injection, schedule: Q01DX009 (ip), vehicle: saline + alcohol 111 % of control | endpoint: mean survival time, dose: 1.0 mg/kg/injection, schedule: Q01DX009 (ip), vehicle: saline + alcohol 122 % of control | endpoint: mean survival time, dose: 2.0 mg/kg/injection, schedule: Q01DX009 (ip), vehicle: saline + alcohol 90 % of control | endpoint: median survival time, dose: 0.06 mg/kg/injection, schedule: Q01DX009 (ip), vehicle: saline + alcohol 117 % of control | endpoint: median survival time, dose: 0.12 mg/kg/injection, schedule: Q01DX009 (ip), vehicle: saline + alcohol 117 % of control | endpoint: median survival time, dose: 0.5 mg/kg/injection, schedule: Q01DX009 (ip), vehicle: saline + alcohol 122 % of control | endpoint: median survival time, dose: 1.0 mg/kg/injection, schedule: Q01DX009 (ip), vehicle: saline + alcohol 120 % of control | endpoint: median survival time, dose: 2.0 mg/kg/injection, schedule: Q01DX009 (ip), vehicle: saline + alcohol 123 % of control

CCCCCCCCC(O)C(O)CCCCCCCC(=O)O (stereo not given)
inactive: endpoint: mean survival time, dose: 100.0 mg/kg/injection, schedule: Q04DX003 (ip), vehicle: other 93 % of control | endpoint: mean survival time, dose: 200.0 mg/kg/injection, schedule: Q04DX003 (ip), vehicle: other 98 % of control | endpoint: mean survival time, dose: 400.0 mg/kg/injection, schedule: Q04DX003 (ip), vehicle: other 95 % of control

c1cc(Oc2ccc3ccncc3c2)c2ccncc2c1
inactive: [4] 95 % of control | [5] 100 % of control | [6] 101 % of control

C=CCS(=O)(=O)O
inactive: endpoint: mean survival time, dose: 100.0 mg/kg/injection, schedule: Q01DX009 (ip), vehicle: saline sonified 96 % of control | endpoint: mean survival time, dose: 100.0 mg/kg/injection, schedule: Q04DX003 (ip), vehicle: saline 100 % of control | endpoint: mean survival time, dose: 200.0 mg/kg/injection, schedule: Q01DX009 (ip), vehicle: saline sonified 96 % of control | endpoint: mean survival time, dose: 200.0 mg/kg/injection, schedule: Q04DX003 (ip), vehicle: saline 107 % of control | endpoint: mean survival time, dose: 400.0 mg/kg/injection, schedule: Q01DX009 (ip), vehicle: saline sonified 96 % of control | endpoint: mean survival time, dose: 400.0 mg/kg/injection, schedule: Q04DX003 (ip), vehicle: saline 107 % of control

CC(C)(C)N[P+](C)(NC(C)(C)C)c1ccccc1
inactive: endpoint: mean survival time, dose: 3.13 mg/kg/injection, schedule: Q04DX003 (ip), vehicle: saline 98 % of control | endpoint: mean survival time, dose: 6.25 mg/kg/injection, schedule: Q04DX003 (ip), vehicle: saline 103 % of control | endpoint: mean survival time, dose: 12.5 mg/kg/injection, schedule: Q04DX003 (ip), vehicle: saline 86 % of control and 95 % of control

COC(=O)C(CS)NC(=O)CCNC(C)=O (stereo not given)
inactive: endpoint: mean survival time, dose: 12.5 mg/kg/injection, schedule: Q01DX009 (ip), vehicle: water 97 % of control | endpoint: mean survival time, dose: 25.0 mg/kg/injection, schedule: Q01DX009 (ip), vehicle: water 100 % of control | endpoint: mean survival time, dose: 50.0 mg/kg/injection, schedule: Q01DX009 (ip), vehicle: water 97 % of control | endpoint: mean survival time, dose: 100.0 mg/kg/injection, schedule: Q01DX009 (ip), vehicle: water 104 % of control | endpoint: mean survival time, dose: 200.0 mg/kg/injection, schedule: Q01DX009 (ip), vehicle: water 100 % of control

CC1(C)C2CCC1(C(=O)O)CC2
inactive: [1] 100 % of control | [2] 100 % of control | [4] 92 % of control | [3] 97 % of control | [5] 95 % of control

CC(C)CC(=O)c1ccccc1O
inactive: [7] 100 % of control | [8] 97 % of control | endpoint: mean survival time, dose: 400.0 mg/kg/injection, schedule: Q01DX001 (ip), vehicle: saline 96 % of control

O=c1oc(-c2ccc(Cl)cc2)nc2cc(Cl)ccc12
inactive: endpoint: mean survival time, dose: 25.0 mg/kg/injection, schedule: Q04DX003 (ip), vehicle: saline with Tween-80 93 % of control | endpoint: mean survival time, dose: 50.0 mg/kg/injection, schedule: Q04DX003 (ip), vehicle: saline with Tween-80 93 % of control | [4] 86 % of control and 89 % of control

Source: PubChem BioAssay AID256 (DTP/NCI, 2004)
